Key:
Format in all cases: cell-based
CBP = molecular target: T1, CBP (Homo sapiens, UniProt Q92793); assay: CBP degradation, western blot, 22Rv1; details: 22Rv1, 5 h
T1 construct: endogenous in cells; host or cells: 22Rv1
Description: (§1) WesternT Blot Analysis. Western blot analysis was performed essentially as described previously. The cells treated with indicated compounds were lysed in Radioimmunoprecipitation Assay Protein Lysis and Extraction Buffer (25 mmol/L Tris.HCl, pH 7.6, 150 mmol/L NaCl, 1% Nonidet P-40, 1% sodium deoxycholate, and 0.1% sodium dodecyl sulfate) containing proteinase inhibitor cocktail (Roche Diagnostics, Mannheim, Germany). Equal amounts of total protein were electrophoresed through 10% SDS-polyacrylamide gels after determination of protein concentration by BCA assay (Fisher Scientific, Pittsburgh, PA). The separated protein bands were transferred onto PVDF membranes (GE Healthcare Life Sciences, Marlborough, MA) and blotted against different antibodies, as indicated. The blots were scanned, and the band intensities were quantified using GelQuant.NET software provided by biochemlabsolutions.com. The relative mean intensity of target proteins was expressed after normalization to the intensity of glyceraldehyde-3-phosphate dehydrogenase bands.

P300 = molecular target: T2, P300 (Homo sapiens, UniProt Q09472); assay: P300 degradation, western blot, 22Rv1; details: 22Rv1, 5 h
T2 construct: endogenous in cells; host or cells: 22Rv1
Description: as §1

MOLM-16 = assay: Cell viability assay (CellTiter-Glo 2.0), MOLM-16; details: MOLM16; MOLM-16 cells
STAT3 = molecular target: T3, STAT3 (Homo sapiens, UniProt P40763); assay: STAT3 degradation HiBiT assay (STAT3-HIBIT KI HeLa); details: STAT3-HIBIT KI HeLa cells, 24 hours
T3 construct: host or cells: HeLa (STAT3-HiBiT CRISPR knock-in clone)
Description: STAT3-HIBIT KI HeLa cell line was purchased from Promega. This cell line is a clone created by using CRISPR-Cas9 to fuse HiBIT to the 3′ end of STAT3 in HeLa cells. DMEM medium and FBS were purchased from Gibco/Thermo Fisher Scientific. STAT3 degradation was determined based on quantification of luminescent signal using Nano-Glo HiBIT Lytic Detection System. In a typical procedure, cells seeded at 20000 cells per well in 96-well white plates (Corning) were incubated with serially diluted compounds for 24 hours at 37° C. with 5% CO2. At the end of treatment, Nano-Glo HiBIT Lytic Detection reagents was added to the wells and luminescence was acquired on TECAN PSARK plate reader. Untreated cells were used as control. Data points were fit with a four-parameter equation to generate a concentration-response curve. IC50 values were calculated using a nonlinear regression analysis of the mean±SD from triplicate.

SU-DHL-1 = assay: Cell viability assay (CellTiter-Glo 2.0), SU-DHL-1; details: Homo sapiens, 96 h; SU-DHL-1 cells, 4 days
Description: SU-DHL-1 and SUP-M2 cell viability was determined by CellTiter-Glo 2.0 Cell Viability Assay (Promega). […] In a typical procedure, cells seeded at 1000 cells per well in 384-well white plates (Corning) were incubated with serially diluted compounds for 4 days at 37° C. with 5% CO2. At the end of treatment, CellTiter-Glo 2.0 was added to the wells and luminescence was acquired on TECAN PSARK plate reader. Untreated cells were used as control. Data points were fit with a four-parameter equation to generate a concentration-response curve. IC50 values were calculated using a nonlinear regression analysis of the mean±SD from triplicate.

T1 sequence (Q92793 whole entry): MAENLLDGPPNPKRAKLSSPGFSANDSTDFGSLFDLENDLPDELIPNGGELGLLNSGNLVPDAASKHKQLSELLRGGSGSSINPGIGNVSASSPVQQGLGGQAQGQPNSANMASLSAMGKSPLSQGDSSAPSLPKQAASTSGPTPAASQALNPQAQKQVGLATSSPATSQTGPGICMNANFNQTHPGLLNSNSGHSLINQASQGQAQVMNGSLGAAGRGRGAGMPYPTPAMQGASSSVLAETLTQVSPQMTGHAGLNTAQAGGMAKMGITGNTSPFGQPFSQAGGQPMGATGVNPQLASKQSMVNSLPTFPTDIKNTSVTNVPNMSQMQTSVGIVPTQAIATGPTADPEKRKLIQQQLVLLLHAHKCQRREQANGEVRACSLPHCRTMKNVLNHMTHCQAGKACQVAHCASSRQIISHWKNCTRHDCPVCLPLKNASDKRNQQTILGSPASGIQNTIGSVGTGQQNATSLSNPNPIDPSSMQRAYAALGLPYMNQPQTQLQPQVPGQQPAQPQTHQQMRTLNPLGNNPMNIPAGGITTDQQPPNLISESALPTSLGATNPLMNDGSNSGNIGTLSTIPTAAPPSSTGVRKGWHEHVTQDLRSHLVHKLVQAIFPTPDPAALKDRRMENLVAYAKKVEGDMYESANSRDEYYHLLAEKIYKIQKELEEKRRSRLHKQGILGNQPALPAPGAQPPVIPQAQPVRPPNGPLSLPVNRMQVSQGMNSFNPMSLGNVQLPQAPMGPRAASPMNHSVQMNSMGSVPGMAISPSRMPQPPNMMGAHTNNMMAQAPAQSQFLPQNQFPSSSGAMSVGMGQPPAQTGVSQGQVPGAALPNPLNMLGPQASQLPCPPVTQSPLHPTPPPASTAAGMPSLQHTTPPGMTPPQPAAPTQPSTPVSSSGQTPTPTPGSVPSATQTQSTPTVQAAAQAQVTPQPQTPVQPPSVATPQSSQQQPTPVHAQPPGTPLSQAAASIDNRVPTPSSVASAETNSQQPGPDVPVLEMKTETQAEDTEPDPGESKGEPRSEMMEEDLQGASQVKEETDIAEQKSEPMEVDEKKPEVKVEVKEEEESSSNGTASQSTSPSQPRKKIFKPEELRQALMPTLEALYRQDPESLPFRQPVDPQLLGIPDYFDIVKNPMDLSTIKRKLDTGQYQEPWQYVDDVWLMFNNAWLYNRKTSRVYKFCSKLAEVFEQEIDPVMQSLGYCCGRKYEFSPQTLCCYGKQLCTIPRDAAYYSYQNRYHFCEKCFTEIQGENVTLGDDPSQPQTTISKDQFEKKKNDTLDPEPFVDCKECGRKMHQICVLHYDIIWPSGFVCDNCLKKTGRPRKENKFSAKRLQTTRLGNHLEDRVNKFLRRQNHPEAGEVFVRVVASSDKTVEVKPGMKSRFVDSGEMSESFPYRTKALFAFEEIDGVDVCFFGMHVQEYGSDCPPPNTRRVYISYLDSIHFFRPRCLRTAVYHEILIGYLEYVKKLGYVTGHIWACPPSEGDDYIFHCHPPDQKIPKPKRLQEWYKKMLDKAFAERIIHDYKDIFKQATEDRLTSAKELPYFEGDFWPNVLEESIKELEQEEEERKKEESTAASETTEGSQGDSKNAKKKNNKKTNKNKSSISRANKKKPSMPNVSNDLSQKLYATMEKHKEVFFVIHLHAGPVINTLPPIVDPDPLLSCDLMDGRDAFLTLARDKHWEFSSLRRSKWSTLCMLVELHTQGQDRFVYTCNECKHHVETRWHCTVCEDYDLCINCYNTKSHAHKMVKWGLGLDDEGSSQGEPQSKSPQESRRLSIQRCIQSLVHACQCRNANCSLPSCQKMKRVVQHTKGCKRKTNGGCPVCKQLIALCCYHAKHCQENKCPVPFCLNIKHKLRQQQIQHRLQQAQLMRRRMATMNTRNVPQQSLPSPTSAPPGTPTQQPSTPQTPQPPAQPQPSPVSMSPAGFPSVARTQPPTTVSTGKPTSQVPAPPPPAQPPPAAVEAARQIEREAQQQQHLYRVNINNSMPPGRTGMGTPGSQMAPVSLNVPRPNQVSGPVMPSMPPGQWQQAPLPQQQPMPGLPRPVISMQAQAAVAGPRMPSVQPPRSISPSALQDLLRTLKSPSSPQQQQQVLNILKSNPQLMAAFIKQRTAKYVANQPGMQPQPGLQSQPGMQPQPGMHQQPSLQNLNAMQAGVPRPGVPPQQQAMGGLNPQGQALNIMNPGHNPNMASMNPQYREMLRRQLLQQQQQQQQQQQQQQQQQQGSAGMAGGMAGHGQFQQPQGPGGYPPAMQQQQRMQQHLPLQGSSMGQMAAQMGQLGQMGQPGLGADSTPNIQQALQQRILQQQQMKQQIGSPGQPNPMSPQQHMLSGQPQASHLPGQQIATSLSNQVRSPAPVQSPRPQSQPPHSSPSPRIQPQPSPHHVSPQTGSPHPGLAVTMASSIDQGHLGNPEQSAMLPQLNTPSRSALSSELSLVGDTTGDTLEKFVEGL
T3 sequence (P40763 whole entry): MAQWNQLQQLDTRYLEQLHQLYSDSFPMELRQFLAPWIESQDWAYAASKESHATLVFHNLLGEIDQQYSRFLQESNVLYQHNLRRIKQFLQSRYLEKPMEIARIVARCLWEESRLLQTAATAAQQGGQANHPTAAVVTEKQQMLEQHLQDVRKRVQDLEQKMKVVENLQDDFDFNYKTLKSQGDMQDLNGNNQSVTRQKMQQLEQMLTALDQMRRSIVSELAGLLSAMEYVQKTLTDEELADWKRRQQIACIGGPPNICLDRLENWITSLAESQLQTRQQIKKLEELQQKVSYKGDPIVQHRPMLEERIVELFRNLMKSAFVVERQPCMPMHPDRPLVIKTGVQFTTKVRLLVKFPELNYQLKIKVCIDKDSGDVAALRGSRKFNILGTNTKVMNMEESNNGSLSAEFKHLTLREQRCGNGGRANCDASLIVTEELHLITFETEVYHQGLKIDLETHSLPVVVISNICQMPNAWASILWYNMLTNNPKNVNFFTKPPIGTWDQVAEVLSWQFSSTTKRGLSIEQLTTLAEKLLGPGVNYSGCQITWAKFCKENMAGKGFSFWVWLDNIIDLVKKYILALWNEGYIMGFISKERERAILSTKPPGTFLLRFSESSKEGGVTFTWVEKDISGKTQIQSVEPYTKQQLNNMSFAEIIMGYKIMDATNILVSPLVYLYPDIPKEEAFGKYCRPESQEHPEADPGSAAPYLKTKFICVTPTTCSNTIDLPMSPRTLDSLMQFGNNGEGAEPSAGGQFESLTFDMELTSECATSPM

Compound	CBP Degradation DCmax (CBP)	DC50 (CBP)	DC50 (P300)	P300 Degradation DCmax (P300)	IC50 (MOLM-16)	DC50 (STAT3)	Dmax (STAT3)	IC50 (SU-DHL-1)
CC(=O)N1CCc2c(c(N3CCCc4cc(-c5cnn(C)c5)c(C(F)F)cc43)nn2C2CCC(N3CCC4(CC3)COc3c4ccc4c3CN([C@H]3CCC(=O)NC3=O)C4=O)CC2)C1 (stereo partly drawn) [CPD-003, (S)-3-(1′-(4-(5-acetyl-3-(7-(difluoromethyl)-6-(1-methyl-1H-pyrazol-4-yl)-3,4-dihydroquinolin-1(2H)-yl)-4,5,6,7-tetrahydro-1H-pyrazolo[4,3-c]pyridin-1-yl)cyclohexyl)-6-oxo-6,8-dihydro-2H,7H-spiro[furo[2,3-e]isoindole-3,4′-piperidin]-7-yl)piperidine-2,6-dione]	A (A (≥90%))	< 0.0001 µM	< 0.0001 µM	A (A (≥90%))	–	–	–	–
CC(=O)N1CCc2c(c(N3CCCc4cc(-c5cnn(C)c5)c(C(F)F)cc43)nn2[C@H]2CC[C@H](CN3CCC4(CC3)COc3c4ccc4c3CN([C@H]3CCC(=O)NC3=O)C4=O)CC2)C1 [CPD-004, (S)-3-(1′-(((1r,4S)-4-(5-acetyl-3-(7-(difluoromethyl)-6-(1-methyl-1H-pyrazol-4-yl)-3,4-dihydroquinolin-1(2H)-yl)-4,5,6,7-tetrahydro-1H-pyrazolo[4,3-c]pyridin-1-yl)cyclohexyl)methyl)-6-oxo-6,8-dihydro-2H,7H-spiro[furo[2,3-e]isoindole-3,4′-piperidin]-7-yl)piperidine-2,6-dione]	A (A (≥90%))	< 0.0001 µM	< 0.0001 µM	A (A (≥90%))	–	–	–	–
CC(=O)N1CCc2c(c(N3CCCc4cc(-c5cnn(C)c5)c(C(F)F)cc43)nn2[C@H]2CC[C@H](C(=O)N3CCC4(CC3)COc3c4ccc4c3CN([C@H]3CCC(=O)NC3=O)C4=O)CC2)C1 [CPD-005, (S)-3-(1′-((1r,4S)-4-(5-acetyl-3-(7-(difluoromethyl)-6-(1-methyl-1H-pyrazol-4-yl)-3,4-dihydroquinolin-1(2H)-yl)-4,5,6,7-tetrahydro-1H-pyrazolo[4,3-c]pyridin-1-yl)cyclohexane-1-carbonyl)-6-oxo-6,8-dihydro-2H,7H-spiro[furo[2,3-e]isoindole-3,4′-piperidin]-7-yl)piperidine-2,6-dione]	A (A (≥90%))	< 0.0001 µM	< 0.0001 µM	A (A (≥90%))	–	–	–	–
CC(=O)N1CCc2c(c(N3CCCc4cc(-c5cnn(C)c5)c(C(F)F)cc43)nn2[C@H]2CC[C@@H](C(=O)N3CCC4(CC3)COc3c4ccc4c3CN([C@H]3CCC(=O)NC3=O)C4=O)CC2)C1 [CPD-006, (S)-3-(1′-((1s,4R)-4-(5-acetyl-3-(7-(difluoromethyl)-6-(1-methyl-1H-pyrazol-4-yl)-3,4-dihydroquinolin-1(2H)-yl)-4,5,6,7-tetrahydro-1H-pyrazolo[4,3-c]pyridin-1-yl)cyclohexane-1-carbonyl)-6-oxo-6,8-dihydro-2H,7H-spiro[furo[2,3-e]isoindole-3,4′-piperidin]-7-yl)piperidine-2,6-dione]	A (A (≥90%))	< 0.0001 µM	0.0001 to 0.001 µM	A (A (≥90%))	–	–	–	–
CS(=O)(=O)c1cccc(OC[C@H](CCC(N)=O)NC(=O)[C@@H]2CC[C@@H]3CCN(C(=O)CCN4CCC5(CC4)COc4c5ccc5c4CN([C@H]4CCC(=O)NC4=O)C5=O)C[C@H](NC(=O)c4cc5cc(C(F)(F)P(=O)(O)O)ccc5s4)C(=O)N32)c1 [STD 69, ((2-(((5S,8S,10aR)-8-(((S)-5-amino-1-(3-(methylsulfonyl)phenoxy)-5-oxopentan-2-yl)carbamoyl)-3-(3-(7-((S)-2,6-dioxopiperidin-3-yl)-6-oxo-7,8-dihydro-2H,6H-spiro[furo[2,3-e]isoindole-3,4′-piperidin]-1′-yl)propanoyl)-6-oxodecahydropyrrolo[1,2-a][1,5]diazocin-5-yl)carbamoyl)benzo[b]thiophen-5-yl)difluoromethyl)phosphonic acid]	–	–	–	–	1 to 10 µM	1 to 10 µM	60 to 80%	1 to 10 µM
NC(=O)CC[C@H](NC(=O)[C@@H]1CC[C@@H]2CCN(C(=O)CCCCN3CCC4(CC3)COc3c4ccc4c3CN([C@H]3CCC(=O)NC3=O)C4=O)C[C@H](NC(=O)c3cc4cc(C(F)(F)P(=O)(O)O)ccc4s3)C(=O)N21)C(=O)NCc1cccc(Cl)c1 [STD 70, ((2-(((5S,8S,10aR)-8-(((S)-5-amino-1-((3-chlorobenzyl)amino)-1,5-dioxopentan-2-yl)carbamoyl)-3-(5-(7-((S)-2,6-dioxopiperidin-3-yl)-6-oxo-7,8-dihydro-2H,6H-spiro[furo[2,3-e]isoindole-3,4′-piperidin]-1′-yl)pentanoyl)-6-oxodecahydropyrrolo[1,2-a][1,5]diazocin-5-yl)carbamoyl)benzo[b]thiophen-5-yl)difluoromethyl)phosphonic acid]	–	–	–	–	1 to 10 µM	0.1 to 1 µM	≥ 80%	1 to 10 µM
CS(=O)(=O)c1cccc(OC[C@H](CCC(N)=O)NC(=O)[C@@H]2CC[C@@H]3CCN(C(=O)CCCCN4CCC5(CC4)COc4c5ccc5c4CN([C@H]4CCC(=O)NC4=O)C5=O)C[C@H](NC(=O)c4cc5cc(C(F)(F)P(=O)(O)O)ccc5s4)C(=O)N32)c1 [STD 71, ((2-(((5S,8S,10aR)-8-(((S)-5-amino-1-(3-(methylsulfonyl)phenoxy)-5-oxopentan-2-yl)carbamoyl)-3-(5-(7-((S)-2,6-dioxopiperidin-3-yl)-6-oxo-7,8-dihydro-2H,6H-spiro[furo[2,3-e]isoindole-3,4′-piperidin]-1′-yl)pentanoyl)-6-oxodecahydropyrrolo[1,2-a][1,5]diazocin-5-yl)carbamoyl)benzo[b]thiophen-5-yl)difluoromethyl)phosphonic acid]	–	–	–	–	0.1 to 1 µM	0.1 to 1 µM	≥ 80%	1 to 10 µM
CC(C)S(=O)(=O)c1ccc(CNC(=O)[C@H](CCC(N)=O)NC(=O)[C@@H]2CC[C@@H]3CCN(C(=O)CCCCN4CCC5(CC4)COc4c5ccc5c4CN([C@H]4CCC(=O)NC4=O)C5=O)C[C@H](NC(=O)c4cc5cc(C(F)(F)P(=O)(O)O)ccc5s4)C(=O)N32)cc1 [STD 80, ((2-(((5S,8S,10aR)-8-(((S)-5-amino-1-((4-(isopropylsulfonyl)benzyl)amino)-1,5-dioxopentan-2-yl)carbamoyl)-3-(5-(7-((S)-2,6-dioxopiperidin-3-yl)-6-oxo-7,8-dihydro-2H,6H-spiro[furo[2,3-e]isoindole-3,4′-piperidin]-1′-yl)pentanoyl)-6-oxodecahydropyrrolo[1,2-a][1,5]diazocin-5-yl)carbamoyl)benzo[b]thiophen-5-yl)difluoromethyl)phosphonic acid]	–	–	–	–	0.1 to 1 µM	0.1 to 1 µM	≥ 80%	1 to 10 µM
CS(=O)(=O)c1cccc(OC[C@H](CCC(N)=O)NC(=O)[C@@H]2CC[C@@H]3CCN(C(=O)CCCCN4CCC5(CC4)COc4c5ccc5c4CN([C@H]4CCC(=O)NC4=O)C5=O)C[C@H](NC(=O)c4cc5cc(C(=O)P(=O)(O)O)ccc5[nH]4)C(=O)N32)c1 [STD 84, (2-(((5S,8S,10aR)-8-(((S)-5-amino-1-(3-(methylsulfonyl)phenoxy)-5-oxopentan-2-yl)carbamoyl)-3-(5-(7-((S)-2,6-dioxopiperidin-3-yl)-6-oxo-7,8-dihydro-2H,6H-spiro[furo[2,3-e]isoindole-3,4′-piperidin]-1′-yl)pentanoyl)-6-oxodecahydropyrrolo[1,2-a] [1,5]diazocin-5-yl)carbamoyl)-1H-indole-5-carbonyl)phosphonic acid]	–	–	–	–	0.1 to 1 µM	0.1 to 1 µM	≥ 80%	1 to 10 µM

— patent US20250195484A1, “CEREBLON LIGANDS AND USES THEREOF” (priority 2022, published 2025)
